Experimental findings from patent US4749559A, “Method for detecting melanin-containing matter” (United States of America, priority 1986, dated 1988) are described below.

Data set [1] deals with B16 melanoma. Put plainly: In vitro binding of [125I]BZZ to homogenate of B16 melanoma. Further details: species or system mouse. As to the method: (§1) A tissue homogenate rather than washed particulate material was used for the assay. The assay system (final volume 200 μ) contained Tris-HCl (pH 7.4), 80 mM; ethyleneglyco-bis-(β-aminoethyl ether) N,N',tetraacetic (EGTA), 0.8 mM and MgSO4, 10 mM; radiolabeled ligand (40,000 cpm, 60 pM) and the unlabeled ligand as required for competitive assay; and incubations were performed at 25° C. for about 60 min. When binding to striatum and to tumor were compared, binding to homogenates of both tissues was determined simultaneously. In order to determine the reproducibility of the results, ligand binding was determined in 3 replicate samples for each experimental condition. The mean of these three values was taken as a single errorless value and the mean of three (or more) of such values from independent experiments is reported. Data represent mean ± SE.

The target in data set [2] is T1, D-1 dopamine receptor (Mus musculus, UniProt Q61616).
T1 construct: homogenate of the caudate putamen of the Swiss Webster mouse brain; from tissue; host or cells: caudate-putamen homogenate, Swiss Webster mouse brain
T1 sequence (Q61616 whole entry): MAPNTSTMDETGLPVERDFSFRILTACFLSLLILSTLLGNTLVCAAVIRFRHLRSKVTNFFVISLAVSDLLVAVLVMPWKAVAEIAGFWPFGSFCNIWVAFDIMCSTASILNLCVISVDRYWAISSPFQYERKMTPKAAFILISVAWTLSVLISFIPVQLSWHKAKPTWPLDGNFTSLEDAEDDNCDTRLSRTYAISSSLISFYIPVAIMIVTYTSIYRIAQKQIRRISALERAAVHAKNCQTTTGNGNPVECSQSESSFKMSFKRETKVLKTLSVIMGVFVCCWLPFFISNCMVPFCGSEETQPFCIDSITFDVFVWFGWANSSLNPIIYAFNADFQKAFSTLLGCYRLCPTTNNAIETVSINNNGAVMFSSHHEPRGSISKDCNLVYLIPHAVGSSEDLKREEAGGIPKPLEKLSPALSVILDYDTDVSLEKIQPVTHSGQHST
The data set can be described thus: In vitro binding of [125I]BZZ to homogenate of caudate putamen (competition with unlabeled SCH23390 enantiomers). The settings on record: FIG. 4A. As to the method: as §1

The subject of data set [3] is caudate nucleus of the rat brain. Put plainly: Binding of [125I]BZZ enantiomers to homogenate of caudate nucleus. The settings on record: FIG. 5. As to the method:
as §1

The test system of data set [4] is human melanoma. The data set can be described thus: In vitro autoradiography of frozen sections of human melanoma (lymph node). In kind it is binding. As to conditions: lymph node with pigmented metastatic melanoma; 200 pM ligand; FIG. 6 right. As to the method: (§2) After animals were killed, the brain, eyes or tumor were immediately removed and frozen on dry ice. Frozen, 16 μthick sections were cut in a cryostat at -16° C., thaw-mounted onto gelatin-coated slides and stored overnight under vacuum at 4° C. The tissue sections were preincubated for 15 min in 50 mM Tris-HCl buffer, pH 7.4, for 15 min and then incubated for 20 min in a solution containing 50 mM Tris-HCl, pH 7.4, 120 mM NaCl, 5 mM KCl, 2 mM CaCl2, 1 mM MgCl2 and 200 pM iodinated ligand (either R or S enantiomer). After incubation, the slides were washed 4 times in ice-cold 50 mM Tris-HCl buffer and dried under a stream of air. Autoradiographic images were produced by placing the slides in X-ray casettes and using them to expose [^3 H]ultra film for 15 hours following standard procedure.

Data set [5] has as its system B16 melanoma. The data set can be described thus: In vitro autoradiography of frozen sections of B16 melanoma. In kind it is binding, mouse. The settings on record: 200 pM ligand; FIG. 6 left. As to the method: as §2
For data set [6], the system named is B16 melanoma. Put plainly: In vivo accumulation of intravenously administered radiolabel in B16 melanoma (gamma counting, autoradiography). On the set-up: species or system mouse. As to the method:
The B16 melanoma was removed from the host mouse, washed in a balanced salt solution and then cut into small fragments (approximately 2 mm cubes). A tumor fragment was then implanted subcutaneously with a trochar into either the back or hind limb of the recipient mouse (either a C57/B16 or Swiss-Webster). Tumors could be easily seen within 2 to 3 weeks after implantation of the tumor fragment.
(§3) Radiolabeled ligand was dissolved in Hank's balanced salt solution and administered via the tail vein as a bolus of 100 μl. At appropriate times, the animals were sacrificed and various organs removed. The amount of ^125 I radioactivity within a given organ was determined with a gamma counter.
as §2

Data set [7] is described as follows: In vivo accumulation of radiolabel in eyes of pigmented and albino mice. Further details: species or system mouse. As to the method:
as §3, §2

Data set [8] deals with B16 melanoma. The data set can be described thus: Noninvasive imaging of [125I] with pinhole collimator and gamma camera. The settings on record: tumor-bearing and nontumor-bearing mice; 50 μCi intravenous; FIG. 2. Format: in vivo, mouse. As to the method:
Mice received a bolus injection of [^125 I]BZZ (50 μCi) dissolved in Hank's balanced salt solution via the tail vein. At several times, the distribution of [^125 I]was determined by imaging with a pinhole collimeter attached to a gamma camera (Raytheon Nuclear Diagnostics).

A short description of data set [9]: In vitro autoradiography of frozen section of retina. In kind it is binding, mouse. As to conditions: FIG. 3C. As to the method:
as §2
Emulsion autoradiography was performed as follows: a flexible coverslip coated with NTB-3 (Kodak) was exposed to the tissue section; when the exposure was complete in about a day (about 24 hrs) the emulsion was developed at 4° for 2 min in D-19 developer. The section was stained with hematoxylin and eosin and the coverslip was reexposed to the stained section.

[10] abbreviates: mouse given B16 melanoma cells intravenously 3 weeks earlier, 50 μCi, autoradiogram FIG. 1D, E.

For the compound `CN1CCc2cc(Cl)c(O)cc2C(c2ccccc2)C1` (centres unmarked) [2,3,4,5-tetrahydro-8-chloro-3 methyl-5-phenyl-1H-3 benzazepin-7-ol], the “displacement of [125I]BZZ from melanoma tissue” value in data set [1] is “effectively displaced”.

As to `CN1CCc2cc(Cl)c(O)cc2[C@@H](c2ccccc2)C1` [R-enantiomer, reference compound], the “affinity for R-enantiomer relative to S-enantiomer” value in data set [2] (D-1 receptor in caudate nucleus, displacement of [125I]BZZ) is given as 100 fold. Also, in data set [1] (B16 melanoma versus caudate homogenate, FIGS. 4A and B), the “concentration required to displace [125I]BZZ from melanoma binding site relative to D-1 dopamine receptor” value is reported as 400 fold. The “difference between R- and S-enantiomers” value in [1] (binding site in B16 melanoma, displacement of [125I]BZZ, FIG. 4B) is listed as 5.1 fold.

For `CN1CCc2cc([125I])c(O)cc2[C@H](c2ccccc2)C1` [[^125 I]-S-BZZ], the “binding to pigmented B16 melanoma homogenate” value in data set [1] (compared with R-enantiomer, FIG. 5) was “to the same degree as did its R-enantiomer”. Moreover, the “binding to homogenate of caudate nucleus” value in [3] is on record as “failed to bind”. In addition, the “binding to metastatic human melanoma (frozen section autoradiogram)” value in data set [4] was “effectively bind”. Further, in [5], the “binding to frozen sections of murine B16 melanoma” value was “bound to frozen sections”.

Take `CN1CCc2cc([125I])c(O)cc2[C@@H](c2ccccc2)C1` [[^125 I]BZZ]: in data set [2] (homogenate of caudate putamen of Swiss Webster mouse brain), the “amount of bound radioactivity corresponding to 100 percent” value is 23,379±555 cpm/mg wet wt. Also, in data set [1] (homogenate of B16 melanoma propagated in Swiss Webster mice, FIG. 4B), the “amount of bound radioactivity corresponding to 100 percent” value is given as 18,033±3,647 cpm/mg wet weight. Also, the “concentration of radiolabel within B-16 melanoma relative to nonpigmented eye” value in [6] (albino mouse, 10 μCi intravenous, within 45 min, p<0.001) stood at 19 times. Further, the “accumulation of radiolabel in tumor versus surrounding tissues (autoradiograph)” value in data set [6] (frozen section of B16 melanoma after intravenous administration, FIG. 1B, C) was “much higher degree than within the surrounding tissues”. Further, in data set [6] (setting [10]), the “accumulation of radiolabel in foci of pigmented cells of lung (metastatic melanoma)” value was “heavy accumulation of radiolabel” and the “binding of ligand to normal lung tissue” value is on record as “does not bind the ligand”. In addition, in data set [7] (50 μCi, 45 min, FIG. 3B), the “localization of radiolabel within the pigmented eye (autoradiography)” value is given as “accumulated predominantly in a narrow band at the back of the pigmented eye”. In addition, in [7] (C57B1/6 versus Swiss Webster mouse, 10 μCi intravenous, P<0.001), the “difference between amount of radiolabel accumulated in pigmented and albino eyes” value amounted to 79 fold. Also, the “accumulation within the abdomen” value in data set [8] is reported as “substantial accumulation”. The “localization of radiolabel in frozen section of retina exposed to ligand in vitro” value in data set [9] was “highly concentrated within the melanin containing pigment epithelium”. In addition, the “binding to metastatic human melanoma (frozen section autoradiogram)” value in data set [4] is listed as “effectively bind”. In data set [5], the “binding to frozen sections of murine B16 melanoma” value is on record as “bound to frozen sections”.
